Assay results from patent US20040019026A1, “Compounds useful for treating hypertriglyceridemia” (priority 2000, published 2004).
Values joined by “and” are separate entries in the source; they are usually repeats but may differ in a detail not shown here. Identical values can stand only once.

Legend:
[1] = system: normal young men and women; test: Phase I trial, oral fluasterone 14 days: HDL levels (Example 5a); format: in vivo, human
Experimental: (a) In a phase I trial in normal young men and women fluasterone was administered in a daily oral dose of 800 mg or 1600 mg for 14 days. The effect of this treatment on HDL levels in males and females is seen in the table hereinbelow.

[2] = system: male BKS.Cg-m+/+Leprdb mice; test: Fasting plasma glucose levels in diabetic mice (Example 9); format: in vivo
[3] = system: male BKS.Cg-m+/+Leprdb mice; test: Seminal vesicle weights, androgenic potency (Example 9); format: in vivo
Description: Eight week old male BKS.Cg-m^+/+Lepr^db mice were obtained from Jackson Laboratories. These mice have a point mutation in the leptin receptor gene and produce a truncated receptor with impaired signaling capacity. These animals are severely insulin resistant and manifest an uncontrolled rise in blood sugar, severe depletion of the insulin-producing beta-cells of the pancreatic islets, and death by 10 months of age. The male animals also have very low plasma testosterone levels and as a consequence undeveloped seminal vesicle glands. Administration of androgens to these mice produces an increase in seminal vesicle weights similar to that seen in castrated males. Thus these animals can be used to assess androgenic potency of various compounds.
The mice were housed five per cage on Alphacel bedding with ad libitum access to Purina 5015 chow and acidified water. The mice were housed in the Central Animal Facility (6th floor, Pharmacy building) with twelve hours of alternating light and darkness.
A week later, the mice were treated subcutaneously (s.c.) with 0.05 mL fluasterone (16α-fluoro-5-androsten-17-one) suspended in an Emulphor-saline vehicle to give either a dose of 5 mg/kg s.c. or 20 mg/kg s.c. or intraperitoneally (i.p.) with 0.05 mL of fluasterone suspended in an Emulphor-saline vehicle to give a dose of 5 mg/kg. The Control mice received the Emulphor-saline vehicle s.c.
All the mice were anesthetized lightly with isoflurane before treatment with fluasterone to minimize the risk of stressing the mice while giving the s.c. dose. Their food was removed the afternoon before administration with drug and the chow was to the mice the next morning immediately after treatment. All the mice had their chow removed daily and restored just after fluasterone administration. During the week, the mice had access to chow for approximately 6½ hours, while on the weekends, the mice had approximately 4½ hours of access to chow. Mice were treated daily (weekdays and weekends).
Mice were treated daily with fluasterone, for about one month. Then the mice were sacrificed with an overdose of CO2. The seminal vesicles of each mouse were excised, cleaned of adventitia and the coagulating glands, and any liquid was pressed out and then the glands were weighed on a Mettler AE50 balance.

[4] = 5 mg/kg, i.p. daily about one month, individual mice
[5] = 5 mg/kg, s.c. daily about one month, individual mice
[6] = 20 mg/kg, s.c. daily about one month, individual mice

C[C@]12CCCCC1=CC[C@@H]1[C@@H]2CC[C@]2(C)C(=O)[C@H](F)C[C@@H]12 [fluasterone, 16α-fluoro-5-androsten-17-one]
HDL Levels ([1]; 800 mg daily oral for 14 days, Females (6), treatment, less than pretreatment, p < 0.015): 46.1 ± 6.2 mg/dL
HDL Levels ([1]; 800 mg daily oral for 14 days, Males (6), treatment): 45.3 ± 15.9 mg/dL
HDL Levels ([1]; 800 mg daily oral, Females (6), pretreatment): 59.2 ± 7.0 mg/dL
HDL Levels ([1]; 800 mg daily oral, Males (6), pretreatment): 50.3 ± 20.1 mg/dL
HDL Levels ([1]; 1600 mg daily oral for 14 days, Females (5), treatment): 43.0 ± 8.1 mg/dL
HDL Levels ([1]; 1600 mg daily oral for 14 days, Males (7), treatment): 40.2 ± 7.4 mg/dL
HDL Levels ([1]; 1600 mg daily oral, Females (5), pretreatment): 45.3 ± 10.1 mg/dL
HDL Levels ([1]; 1600 mg daily oral, Males (7), pretreatment): 46.1 ± 6.6 mg/dL
Fasting Plasma Glucose Levels ([2]; 5 mg/kg i.p., treatment day 0): 270 ± 81.9 mg/dL
Fasting Plasma Glucose Levels ([2]; 5 mg/kg i.p., treatment day 7): 434 ± 264 mg/dL
Fasting Plasma Glucose Levels ([2]; 5 mg/kg i.p., treatment day 14): 410 ± 32.1 mg/dL
Fasting Plasma Glucose Levels ([2]; 5 mg/kg i.p., treatment day 17, greater than s.c. Control, p < 0.01): 635 ± 77.3^3 mg/dL
Fasting Plasma Glucose Levels ([2]; 5 mg/kg s.c., treatment day 0): 245 ± 102 mg/dL
Fasting Plasma Glucose Levels ([2]; 5 mg/kg s.c., treatment day 7): 173 ± 58.3 mg/dL
Fasting Plasma Glucose Levels ([2]; 5 mg/kg s.c., treatment day 14, less than s.c. Control, p < 0.001): 134 ± 29.8^1 mg/dL
Fasting Plasma Glucose Levels ([2]; 5 mg/kg s.c., treatment day 17, less than s.c. Control, p < 0.001): 96.0 ± 18.5^1 mg/dL
Fasting Plasma Glucose Levels ([2]; 200 mg/kg oral, treatment day 0): 245 ± 72.1 mg/dL
Fasting Plasma Glucose Levels ([2]; 200 mg/kg oral, treatment day 7): 181 ± 69.3 mg/dL
Fasting Plasma Glucose Levels ([2]; 200 mg/kg oral, treatment day 14, less than oral Control, p < 0.001): 107 ± 12.2^2 mg/dL
Fasting Plasma Glucose Levels ([2]; 200 mg/kg oral, treatment day 17, less than oral Control, p < 0.001): 104 ± 24.8^2 mg/dL
Seminal Vesicles [3, 4]: 85.6 mg and 81.8 mg and 71.9 mg and 81.0 mg
s.v./b.w. [3, 4]: 2.1084 and 1.6166 and 1.5630 and 2.0301
Seminal Vesicles ([3]; 5 mg/kg, i.p., Average, p < 0.005): 80.1 p < 0.005 mg
s.v./b.w. ([3]; 5 mg/kg, i.p., Average, p < 0.01): 1.8295
Seminal Vesicles [3, 5]: 40.7 mg and 43.4 mg and 44.5 mg and 42.2 mg and 41.9 mg
s.v./b.w. [3, 5]: 0.8568 and 1.1361 and 0.9570 and 0.9420 and 0.9566
Seminal Vesicles ([3]; 5 mg/kg, s.c., Average): 42.5 mg
s.v./b.w. ([3]; 5 mg/kg, s.c., Average, n.s.): 0.9697 n.s.
Seminal Vesicles [3, 6]: 39.6 mg and 35.8 mg and 35.4 mg and 34.6 mg
s.v./b.w. [3, 6]: 0.8684 and 1.0000 and 0.8872 and 0.8065
Seminal Vesicles ([3]; 20 mg/kg, s.c., Average, n.s.): 36.4 n.s. mg
s.v./b.w. ([3]; 20 mg/kg, s.c., Average, n.s.): 0.8905 n.s.
Androgenicity ([3]; 200 mg/kg p.o. dose, mouse): lack of androgenicity
Effect on seminal vesicle weights ([3]; i.p. route): highly significant increase in seminal vesicle weights
Effect on seminal vesicle weights ([3]; s.c. route at much higher doses): no apparent effect on seminal vesicle weights
